In the experiment the test system is male Std:ddY mice. Description: Phenyl-1,4-benzoquinone-induced writhing test. In kind it is in vivo. As to conditions: for inhibition in vivo at 10 mg/kg / ED50 / inhibition in vivo at 1 mg/kg: Mus musculus; for inhibition in vivo at 10 mg/kg / inhibition in vivo at 1 mg/kg: 1 h, read-out: Inhibitory percentage (%); for inhibition in vivo at 10 mg/kg / Inhibitory percentage (%): orally administered at a dose of 10 mg/kg; for inhibition in vivo at 10 mg/kg / inhibition in vivo at 1 mg/kg / Inhibitory percentage (%): 60 minutes before PBQ; for ED50 / ED50 (mg/kg po) / ED50 (mg/kg sc) / Inhibitory percentage (%): writhing inhibition; for ED50 / ED50 (mg/kg po) / ED50 (mg/kg sc): logit analysis; for inhibition in vivo at 1 mg/kg: subcutaneously administered at a dose of 1 mg/kg. As for the experimental part: Phenyl-1,4-benzoquinone-induced Writhing Test Referring to the method disclosed in Proc. Soc. exp. Biol. […] For oral administration, a test compound was suspended in 0.5% tragacanth solution. […] In the control group, a physiological saline solution containing 10% Tween 80 and 10% ethanol was administered in the case of subcutaneous administration, or a 0.5% tragacanth solution was administered in the case of oral administration. The number of writhing movements in the test compound-treated group was compared with that in the control group, and the writhing inhibitory percentage was calculated therefrom and considered as an analgesic effect. Writhing inhibitory percentage (%)=[(A−B)/A]×100 In the above equation, A means the number of writhing movements in the control group, and B means the number of writhing movements in the test compound-treated group. From the writhing inhibitory percentage of the test compound, ED50 (mg/kg) was calculated by logit analysis.

The mark [1] stands for this setting: po, oral administration, read-out: ED50 (mg/kg po).
Where [2] appears, read: sc, subcutaneous administration, read-out: ED50 (mg/kg sc).

Counter-ions that a name gives are not always drawn. Like-named read-outs stand apart in the source and are kept apart here.

This note sets out measurements from patent US7084176B2, “N-arylphenylacetamide derivatives and medicinal compositions containing the same” (Dainippon Pharmaceutical Co., Ltd., priority 2001, dated 2006).

`COc1cc(CC(=O)Nc2cccc(-c3ccccc3F)c2)ccc1OCCN` [Example 123, 4-(2-aminoethoxy)-N-[3-(2-fluorophenyl)phenyl]-3-methoxyphenylacetamide]: where the note is “po”, the inhibition in vivo at 10 mg/kg stood at 100%. Further, the ED50 under setting [1] was at most 1 mg/kg. Further, for the setting “oral administration, listed as Ex. 123”, the “ED50 (mg/kg po)” value was determined as 0.76 mg/kg.
Consider `COc1cc(CC(=O)Nc2cccc(-c3ccccc3-c3ccccc3)c2)ccc1OCCN` [Example 143, 4-(2-aminoethoxy)-3-methoxy-N-[3-(2-phenylphenyl)phenyl]-phenylacetamide], for which, for the setting “po”, the inhibition in vivo at 10 mg/kg was 73.2%. Under setting [1], the ED50 amounted to 3.72 mg/kg.
`COc1cc(CC(=O)Nc2cccc(-c3ccccc3C3CCCCC3)c2)ccc1OCCN` [Example 122, 4-(2-aminoethoxy)-N-[3-(2-cyclohexylphenyl)phenyl]-3-methoxyphenylacetamide]: the inhibition in vivo at 10 mg/kg (po) amounted to 99%. Also, the ED50 under setting [1] is at most 1 mg/kg. The “ED50 (mg/kg po)” value (oral administration, listed as Ex. 122) came to 0.58 mg/kg.
Turning to `COc1cc(CC(=O)Nc2cccc(C3CCCCC3)c2)ccc1O` [Example 1, N-(3-cyclohexylphenyl)-4-hydroxy-3-methoxyphenylacetamide], the inhibition in vivo at 1 mg/kg (sc) was 100%. Moreover, the “ED50 (mg/kg sc)” value (subcutaneous administration, listed as Ex. 1) was 0.014 mg/kg.
Regarding `COc1cc(CC(=O)Nc2cccc(-c3ccccc3C(F)(F)F)c2)ccc1OCCN` [Example 142, 4-(2-aminoethoxy)-3-methoxy-N-[3-(2-trifluoromethylphenyl)-phenyl]phenylacetamide], the inhibition in vivo at 10 mg/kg (po) came out at 98.9%. Besides, the ED50 under setting [1] was 1.19 mg/kg.
Regarding `COc1cc(CC(=O)Nc2cccc(C3CCCCCC3)c2)ccc1OCCN` [Ex. 58, 4-(2-aminoethoxy)-N-(3-cycloheptylphenyl)-3-methoxyphenylacetamide hydrochloride], the inhibition in vivo at 1 mg/kg (sc) was found to be 54.4%.
For `COc1cc(CC(=O)Nc2cccc(-c3cc(F)cc(F)c3)c2)ccc1OCCN` [Example 129, 4-(2-aminoethoxy)-N-[3-(3,5-difluorophenyl)phenyl]-3-methoxyphenylacetamide], the inhibition in vivo at 10 mg/kg (po) was determined as 76.9%. For the same compound, the ED50 under setting [1] is 1.89 mg/kg.
Take `COc1cc(CC(=O)Nc2ccc(C)c(-c3ccccc3)c2)ccc1OCCN` [Example 173, 4-(2-aminoethoxy)-3-methoxy-N-[(3-phenyl-4-methyl)phenyl]-phenylacetamide]: the “Inhibitory percentage (%)” value is listed as 100%. Moreover, under “oral administration, listed as Ex. 173”, the “ED50 (mg/kg po)” value turned out to be 0.87 mg/kg.
As for `COc1cc(CC(=O)Nc2cccc(C3=CCCCC3)c2)ccc1O` [Example 9, N-[3-(cyclohexen-1-yl)phenyl]-4-hydroxy-3-methoxyphenylacetamide], the inhibition in vivo at 1 mg/kg (sc) stood at 93.2%. In addition, the ED50 under setting [2] was found to be 0.23 mg/kg.
For `COc1cc(CC(=O)Nc2cccc(-c3ccc(C(F)(F)F)cc3)c2)ccc1OCCN` [Example 140, 4-(2-aminoethoxy)-3-methoxy-N-[3-(4-trifluoromethylphenyl)-phenyl]phenylacetamide], the inhibition in vivo at 10 mg/kg (po) was 91%. Moreover, the ED50 under setting [1] was found to be 2.18 mg/kg.
For the compound `COc1cc(CC(=O)Nc2ccc3c(c2)C(=O)/C(=C/C(C)C)CC3)ccc1O` [Ex. 250], the inhibition in vivo at 1 mg/kg (sc) stood at 55%.
For the compound `COc1cc(CC(=O)Nc2cccc([C@H]3CC[C@H](C(C)(C)C)CC3)c2)ccc1OCCN` [Example 195, 4-(2-aminoethoxy)-N-[3-[(trans)-4-tert-butylcyclohexan-1-yl]-phenyl]-3-methoxyphenylacetamide], for the setting “po”, the inhibition in vivo at 10 mg/kg came to 77.7%.
Turning to `COc1cc(CC(=O)Nc2cccc(/C=C\c3ccccc3)c2)ccc1O` [Example 56, 4-hydroxy-3-methoxy-N-[3-[(Z)-2-phenylvinyl]phenyl]phenylacetamide], the inhibition in vivo at 1 mg/kg (sc) was 82.7%. The ED50 under setting [2] was determined as 0.11 mg/kg.
Take `COc1cc(CC(=O)Nc2cccc(N3CCCC(C)C3)c2)ccc1O` (centres unmarked) [Example 88, N-[3-(3-methylpiperidin-1-yl)phenyl]-4-hydroxy-3-methoxyphenylacetamide]: the inhibition in vivo at 1 mg/kg (sc) amounted to 76.6%.
Regarding `COc1cc(CC(=O)Nc2cccc(C3C(C)CCCC3C)c2)ccc1O` (centres unmarked) [Example 84, N-[3-(2,6-dimethylcyclohexan-1-yl)phenyl]-4-hydroxy-3-methoxyphenylacetamide], where the note is “sc”, the inhibition in vivo at 1 mg/kg came out at 67.7%. Besides, under setting [2], the ED50 stood at 0.45 mg/kg.
For the compound `COc1cc(CC(=O)Nc2cccc(-c3cccc4ccccc34)c2)ccc1OCCN` [Example 163, 4-(2-aminoethoxy)-3-methoxy-N-[3-(naphthalen-1-yl)phenyl]-phenylacetamide], the inhibition in vivo at 10 mg/kg (po) worked out at 87.9%. Also, under setting [1], the ED50 is 1.61 mg/kg.
On to `COc1cc(CC(=O)Nc2cccc(C#Cc3ccccc3)c2)ccc1O` [Example 36, 4-hydroxy-3-methoxy-N-[3-(2-phenylethynyl)phenyl]phenylacetamide], for which the inhibition in vivo at 1 mg/kg (sc) turned out to be 92.3%. For the same compound, the “ED50 (mg/kg sc)” value (subcutaneous administration, listed as Ex. 36) came out at 0.046 mg/kg.
On to `COc1cc(CC(=O)Nc2cccc(-c3c(C)cc(C)cc3C)c2)ccc1OCCN` [Example 133, 4-(2-aminoethoxy)-3-methoxy-N-[3-(2,4,6-trimethylphenyl)-phenyl]phenylacetamide], for which the inhibition in vivo at 10 mg/kg (po) turned out to be 94%. In addition, the ED50 under setting [1] worked out at 1.28 mg/kg.
As for `COc1cc(CC(=O)Nc2cccc(-c3cccc(Cl)c3)c2)ccc1OCCN` [Example 126, 4-(2-aminoethoxy)-N-[3-(3-chlorophenyl)phenyl]-3-methoxyphenylacetamide], the inhibition in vivo at 10 mg/kg (po) amounted to 89.9%. The ED50 under setting [1] was 2.19 mg/kg.
For the compound `COc1cc(CC(=O)Nc2cccc(C3CCC(C)CC3)c2)ccc1O` (centres unmarked) [Example 13, 4-hydroxy-3-methoxy-N-[3-(4-methylcyclohexan-1-yl)phenyl]-phenylacetamide], the inhibition in vivo at 1 mg/kg (sc) was 100%. Moreover, under setting [2], the ED50 is at most 0.1 mg/kg. For the same compound, the “ED50 (mg/kg sc)” value (subcutaneous administration, listed as Ex. 13) amounted to 0.097 mg/kg.
In the case of `COc1cc(CC(=O)Nc2cccc(C3CCCC(C)C3)c2)ccc1O` (centres unmarked) [Example 83, 4-hydroxy-3-methoxy-N-[3-(3-methylcyclohexan-1-yl)phenyl]-phenylacetamide], the inhibition in vivo at 1 mg/kg (sc) is 83%. Besides, under setting [2], the ED50 was at most 0.1 mg/kg. Moreover, the “ED50 (mg/kg sc)” value (subcutaneous administration, listed as Ex. 83) was 0.10 mg/kg.
As for `COc1cc(CC(=O)Nc2cccc(N3CCCC(C4CCCCC4)C3)c2)ccc1O` (centres unmarked) [Example 87, N-[3-(3-cyclohexylpiperidin-1-yl)phenyl]-4-hydroxy-3-methoxyphenylacetamide], where the note is “sc”, the inhibition in vivo at 1 mg/kg was determined as 95.8%. Under setting [2], the ED50 came to 0.4 mg/kg.
Regarding `COc1cc(CC(=O)Nc2cc(-c3ccccc3)c(C)c(-c3ccccc3)c2)ccc1OCCN` [Example 181, 4-(2-aminoethoxy)-3-methoxy-N-[(4-methyl-3,5-diphenyl)-phenyl]phenylacetamide], the “Inhibitory percentage (%)” value is on record as 80.9%. Besides, for the setting “oral administration”, the “ED50 (mg/kg po)” value is on record as 1.11 mg/kg.
For the compound `COc1cc(CC(=O)Nc2cccc(-c3cc4ccccc4o3)c2)ccc1OCCN` [Example 166, 4-(2-aminoethoxy)-N-[3-(benzofuran-2-yl)phenyl]-3-methoxyphenylacetamide], the inhibition in vivo at 10 mg/kg (po) was determined as 96%. Under setting [1], the ED50 was determined as 2.4 mg/kg.
On to `COc1cc(CC(=O)Nc2cccc(N3CCCC(c4ccccc4)C3)c2)ccc1OCCN` (centres unmarked) [Example 200, 4-(2-aminoethoxy)-3-methoxy-N-[3-(3-phenylpiperidin-1-yl)-phenyl]phenylacetamide], for which the inhibition in vivo at 10 mg/kg (po) came to 84.2%.
For the compound `COc1cc(CC(=O)Nc2cccc(C3CCC(C(C)(C)C)CC3)c2)ccc1OC(=O)c1ccccc1` (centres unmarked) [Example 70, 4-benzoyloxy-N-[3-(4-tert-butylcyclohexan-1-yl)phenyl]-3-methoxyphenylacetamide], the inhibition in vivo at 10 mg/kg (po) turned out to be 68.6%. The ED50 turned out to be 9.7 mg/kg under setting [1] and 0.16 mg/kg under setting [2]. The inhibition in vivo at 1 mg/kg (sc) was determined as 93.2%.
For `COc1cc(CC(=O)Nc2ccc3c(c2)C(=O)C(Cc2ccccc2)CC3)ccc1O` (centres unmarked) [Example 249, 4-hydroxy-3-methoxy-N-[1-oxo-2-phenylmethyl-1,2,3,4-tetrahydronaphthalen-7-yl]phenylacetamide], the inhibition in vivo at 1 mg/kg (sc) was found to be 89.4%. The “ED50 (mg/kg sc)” value (subcutaneous administration, listed as Ex. 249) came to 0.043 mg/kg.
Turning to `COc1cc(CC(=O)Nc2cccc(-c3ccccc3C(C)(C)C)c2)ccc1OCCN` [Example 184, 4-(2-aminoethoxy)-N-[3-(2-tert-butylphenyl)phenyl]-3-methoxyphenylacetamide], for the setting “po”, the inhibition in vivo at 10 mg/kg amounted to 100%. Moreover, the ED50 under setting [1] was at most 1 mg/kg. The “ED50 (mg/kg po)” value (oral administration, listed as Ex. 184) turned out to be 0.60 mg/kg.
With `COc1cc(CC(=O)Nc2cccc(-c3ccccc3C)c2)ccc1OCCN` [Example 131, 4-(2-aminoethoxy)-3-methoxy-N-[3-(2-methylphenyl)phenyl]-phenylacetamide], the inhibition in vivo at 10 mg/kg (po) is 100%. In addition, under setting [1], the ED50 amounted to 1.1 mg/kg.
Regarding `COc1ccc(-c2ccccc2)cc1NC(=O)Cc1ccc(OCCN)c(OC)c1` [Example 177, 4-(2-aminoethoxy)-3-methoxy-N-[(2-methoxy-5-phenyl)phenyl]-phenylacetamide], the “Inhibitory percentage (%)” value was 78.9%. Besides, for the setting “oral administration”, the “ED50 (mg/kg po)” value is 3.41 mg/kg.
